The values below come from PubChem BioAssay (NCI).

What all share (assay): NCI-60 cell line screen, 48 h
The test system of assay [1] is ACHN renal.
Assay [2] has as its system HCT-116 colon.
Assay [3] concerns MDA-MB-435.
For assay [4], the system named is NCI-H522 lung.
Assay [5] deals with OVCAR-5 ovarian.
The subject of assay [6] is SF-539 CNS.
In assay [7] the test system is SNB-19 CNS.
The test system of assay [8] is SR leukemia.
The subject of assay [9] is UACC-257 melanoma.
The subject of assay [10] is UACC-62 melanoma.

Each structure is given as a SMILES string.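 96-well plates; 48 h exposure; 5 concentrations. Endpoints by linear interpolation between flanking doses. Not reached: highest tested concentration assigned. The concentration for 50% growth inhibition is given as GI50. TGI marks complete inhibition of growth.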

`CS(=O)(=O)CCNCc1ccc(-c2ccc3ncnc(Nc4ccc(OCc5cccc(C(F)(F)F)c5)cc4)c3c2)o1`: the GI50 in assay [1] was 7.38 µM; in assay [2], 5.07 µM; in assay [3], 4.71 µM; in assay [4], 4.8 µM; in assay [5], 9.03 µM; in [6] it was 4.66 µM. For the same compound, the GI50 in [7] was 11.3 µM; in [8] it was 4.49 µM; in assay [9], 3.79 µM; in assay [10] it was 5.11 µM. Moreover, the TGI in assay [1] was greater than 25 µM; in [2], 10 µM; in assay [3], 10.7 µM; in [4], 8.91 µM; in assay [5], 24.3 µM; in assay [6], 9.75 µM. Further, the TGI in assay [7] was greater than 25 µM; in [8] it was 16.7 µM; in assay [9], 7.49 µM; in assay [10], 9.66 µM.

As for `CCOC(=O)CC1(O)C=CC(=O)C=C1`, the GI50 is 2.43 µg/mL in [1]; 2.47 µg/mL in [2]; 2.35 µg/mL in assay [3]; 0.515 µg/mL in assay [4]; 3.18 µg/mL in [5]; 0.581 µg/mL in [6]. Besides, the GI50 is 1.53 µg/mL in assay [7], 0.348 µg/mL in assay [8], 0.883 µg/mL in assay [9] and 0.485 µg/mL in [10]. Also, the TGI was 4.6 µg/mL in assay [1]; 5.44 µg/mL in assay [2]; 4.89 µg/mL in assay [3]; 1.31 µg/mL in assay [4]; 5.42 µg/mL in assay [5]; 2.68 µg/mL in assay [6]. The TGI in assay [7] is 5.05 µg/mL; in [8], 1.18 µg/mL; in [9] it was 2.09 µg/mL; in assay [10], 1.7 µg/mL.

As to `CCCCCCCCCCCCCCCc1cc(O)ccc1N`, the GI50 is greater than 100 µM in assay [1]; greater than 100 µM in assay [2]; greater than 100 µM in [3]; 0.127 µM in assay [4]; 28 µM in assay [5]; 0.702 µM in assay [6]. For the same compound, the GI50 is greater than 100 µM in assay [7], 2.18 µM in assay [8], 11.3 µM in [9] and 13.2 µM in assay [10]. In addition, the TGI was greater than 100 µM in [1]; greater than 100 µM in assay [2]; greater than 100 µM in [3]; 0.452 µM in assay [4]; greater than 100 µM in assay [5]; 2.19 µM in assay [6]. Besides, the TGI in assay [7] is greater than 100 µM; in assay [8], 23.4 µM; in assay [9], greater than 80.1 µM; in [10], greater than 100 µM.

On to `O=C1/C(=C/c2ccccc2Cl)N=C(c2ccccc2)N1Cc1ccco1`, for which the GI50 in assay [1] was greater than 100 µM; in assay [2], 18.5 µM; in assay [3], 20.1 µM; in [4] it was 26.2 µM; in assay [5], greater than 100 µM; in [6], 63.8 µM. For the same compound, the GI50 was greater than 100 µM in assay [7], 26.2 µM in assay [8], 21.2 µM in [9] and 12.6 µM in assay [10]. Besides, the TGI is greater than 100 µM in assay [1]; greater than 100 µM in [2]; 49.9 µM in [3]; 66.7 µM in [4]; greater than 100 µM in assay [5]; greater than 100 µM in assay [6]. Moreover, the TGI was greater than 100 µM in [7], greater than 100 µM in assay [8], 39.8 µM in assay [9] and 34.7 µM in [10].

Consider `O=C1c2ccccc2C(=O)N1c1ccc(S(=O)(=O)Nc2ncccn2)cc1`, for which the GI50 in [1], in [2], in [3], in [4], in assay [5] and in [6] was greater than 100 µM in each case. The GI50 in assay [7], in assay [8], in assay [9] and in assay [10] was greater than 100 µM in each case. Besides, the TGI in assay [1], in assay [2], in [3], in assay [4], in assay [5] and in assay [6] was greater than 100 µM each time. In addition, the TGI in assay [7], in assay [8], in [9] and in assay [10] was greater than 100 µM each time.

Consider `CC(C)(C)c1ccc([I+]c2ccc(C(C)(C)C)cc2)cc1`, for which the GI50 in assay [1] is 3.25 µM; in [2], 1.25 µM; in assay [3], 0.948 µM; in [4], 1.39 µM; in assay [5], 3.24 µM; in assay [6], 2.08 µM. For the same compound, the GI50 in assay [7] was 1.11 µM; in assay [8], 0.935 µM; in assay [9], 0.595 µM; in assay [10], 0.69 µM. Moreover, the TGI came to 12.2 µM in assay [1]; 4 µM in assay [2]; 3.01 µM in assay [3]; 4.8 µM in assay [4]; 12.9 µM in assay [5]; 10.2 µM in assay [6]. The TGI was determined as 3.24 µM in assay [7], 3.15 µM in [8], 2.54 µM in [9] and 2.31 µM in assay [10].

Turning to `CC1(C)N=C(N)N=C(N)N1c1ccc(F)c(C(F)(F)F)c1`, the GI50 is 2.28 µM in assay [1]; 0.172 µM in [2]; 0.239 µM in [3]; 3.78 µM in assay [4]; greater than 100 µM in assay [5]; 0.71 µM in [6]. In addition, the GI50 in assay [7] is 4.47 µM; in [8], 0.444 µM; in assay [9] it was greater than 57.8 µM; in [10] it was 2.25 µM. In addition, the TGI in assay [1], in [2], in [3], in assay [4], in assay [5] and in assay [6] was greater than 100 µM throughout. Also, the TGI in assay [7], in assay [8], in assay [9] and in [10] was greater than 100 µM in each case.

Regarding `O=Cc1ccc(-c2ccc(-c3ccc(C=O)s3)o2)s1`, the TGI in [1] is greater than 100 µM; in assay [2], greater than 100 µM; in assay [3], greater than 100 µM; in [4], 29.5 µM; in [5], 11 µM; in assay [6], greater than 100 µM. Besides, the TGI in assay [7] was greater than 100 µM; in [8], greater than 100 µM; in [9], 16.2 µM; in assay [10], 0.441 µM.
